Results taken from the supplement of paper PMC11451515.

Tested on: P12-Ichikawa
Assay: cell viability relative to DMSO control; higher = less cytotoxic
Details: 48 h
How it was run: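 Library compounds in DMSO were pin-dosed in an 11-point threefold series (47 μM to 0.79 nM) onto leukemia cells in 1536-well plates (5 μl). Plates held 500 cells/well of NOMO1 or SEM or 1000 cells/well of P12-Ichikawa, each adapted for at least four passages in each medium. Luminescence was read with CellTiter-Glo One after 48 h at 37°C. Viability means the per-plate percentage relative to DMSO wells, using cell-free wells as background.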

[1] = HPLM + 10% dialyzed FBS, 0.000781 µM
[2] = HPLM + 10% dialyzed FBS, 0.00234 µM
[3] = HPLM + 10% dialyzed FBS, 0.00702 µM
[4] = HPLM + 10% dialyzed FBS, 0.0211 µM
[5] = HPLM + 10% dialyzed FBS, 0.0632 µM
[6] = HPLM + 10% dialyzed FBS, 0.19 µM
[7] = HPLM + 10% dialyzed FBS, 0.569 µM
[8] = HPLM + 10% dialyzed FBS, 1.71 µM
[9] = HPLM + 10% dialyzed FBS, 5.12 µM
[10] = HPLM + 10% dialyzed FBS, 15.4 µM
[11] = HPLM + 10% dialyzed FBS, 46.1 µM
[12] = RPMI 5 mM glucose + 10% FBS, 0.000781 µM
[13] = RPMI 5 mM glucose + 10% FBS, 0.00234 µM
[14] = RPMI 5 mM glucose + 10% FBS, 0.00702 µM
[15] = RPMI 5 mM glucose + 10% FBS, 0.0211 µM
[16] = RPMI 5 mM glucose + 10% FBS, 0.0632 µM
[17] = RPMI 5 mM glucose + 10% FBS, 0.19 µM
[18] = RPMI 5 mM glucose + 10% FBS, 0.569 µM
[19] = RPMI 5 mM glucose + 10% FBS, 1.71 µM
[20] = RPMI 5 mM glucose + 10% FBS, 5.12 µM
[21] = RPMI 5 mM glucose + 10% FBS, 15.4 µM
[22] = RPMI 5 mM glucose + 10% FBS, 46.1 µM
[23] = RPMI 5 mM glucose + 10% dialyzed FBS, 0.000781 µM
[24] = RPMI 5 mM glucose + 10% dialyzed FBS, 0.00234 µM
[25] = RPMI 5 mM glucose + 10% dialyzed FBS, 0.00702 µM
[26] = RPMI 5 mM glucose + 10% dialyzed FBS, 0.0211 µM
[27] = RPMI 5 mM glucose + 10% dialyzed FBS, 0.0632 µM
[28] = RPMI 5 mM glucose + 10% dialyzed FBS, 0.19 µM
[29] = RPMI 5 mM glucose + 10% dialyzed FBS, 0.569 µM
[30] = RPMI 5 mM glucose + 10% dialyzed FBS, 1.71 µM
[31] = RPMI 5 mM glucose + 10% dialyzed FBS, 5.12 µM
[32] = RPMI 5 mM glucose + 10% dialyzed FBS, 15.4 µM
[33] = RPMI 5 mM glucose + 10% dialyzed FBS, 46.1 µM

Row | SMILES | cell viability [1] [%] | cell viability [2] [%] | cell viability [3] [%] | cell viability [4] [%] | cell viability [5] [%] | cell viability [6] [%] | cell viability [7] [%] | cell viability [8] [%] | cell viability [9] [%] | cell viability [10] [%] | cell viability [11] [%] | cell viability [12] [%] | cell viability [13] [%] | cell viability [14] [%] | cell viability [15] [%] | cell viability [16] [%] | cell viability [17] [%] | cell viability [18] [%] | cell viability [19] [%] | cell viability [20] [%] | cell viability [21] [%] | cell viability [22] [%] | cell viability [23] [%] | cell viability [24] [%] | cell viability [25] [%] | cell viability [26] [%] | cell viability [27] [%] | cell viability [28] [%] | cell viability [29] [%] | cell viability [30] [%] | cell viability [31] [%] | cell viability [32] [%] | cell viability [33] [%]
1 | O=C(Nc1ncc(SCCN2CCCC2)s1)[C@]1(c2ccc([S+](=O)([O-])C3CC3)cc2)C[C@H]1C1CCCCC1 | 117 | 115 | 121 | 121 | 116 | 113 | 116 | 108 | 111 | 96.5 | 68.8 | 120 | 120 | 111 | 123 | 108 | 123 | 105 | 112 | 105 | 108 | 43.6 | 111 | 122 | 114 | 121 | 109 | 118 | 120 | 109 | 108 | 88.3 | 35.9
2 | Oc1cccc(-c2nc(N3CCOCC3)c3oc4ncccc4c3n2)c1 | 118 | 119 | 123 | 123 | 117 | 121 | 131 | 118 | 116 | 79.2 | 73.3 | 122 | 114 | 132 | 129 | 110 | 102 | 80.8 | 79 | 108 | 94.6 | 75.3 | 121 | 123 | 119 | 126 | 113 | 110 | 98.4 | 81.5 | 114 | 108 | 95.7
3 | CN[C@@H]1Cc2cccc3[nH]c(=O)n(c23)C1 | 124 | 123 | 114 | 115 | 122 | 117 | 108 | 117 | 108 | 106 | 111 |  |  |  |  |  |  |  |  |  |  |  | 122 | 122 | 116 | 130 | 117 | 123 | 115 | 109 | 108 | 111 | 105
4 | Cc1ccc([S+](=O)([O-])Nc2nc3ccccc3nc2Nc2ccc3nsnc3c2)cc1 | 105 | 110 | 111 | 110 | 115 | 116 | 109 | 112 | 106 | 36.3 | 13.3 | 93.4 | 114 | 104 | 116 | 103 | 113 | 110 | 103 | 77.5 | 28.5 | 12.4 | 92 | 107 | 112 | 116 | 112 | 104 | 101 | 112 | 92.1 | 74.1 | 30.4
5 | C[C@]12CC[C@H]3[C@@H](CCC/4=C/C(=O)CC[C@]34C)[C@@H]1CC[C@@H]2O | 111 | 121 | 121 | 126 | 128 | 124 | 128 | 132 | 126 | 125 | 127 |  |  |  |  |  |  |  |  |  |  |  |  |  |  |  |  |  |  |  |  |  | 
6 | CC(C)C[C@H](NC(=O)CNC(=O)c1cc(Cl)ccc1Cl)B(O)O | 91 | 98.3 | 99.7 | 14.2 | 106 | 78 | 6.35 | 5.51 | 4.53 | 3 | 2.23 | 78.7 | 89 | 85.8 | 11.8 | 102 | 73.1 | 6.15 | 5.14 | 4.49 | 3.12 | 1.86 | 88.7 | 88.6 | 91.2 | 21.6 | 100 | 88 | 6.52 | 5.26 | 4.56 | 2.86 | 1.63
7 | Cc1cc(Nc2nc(N[C@@H](C)c3ccc(F)cc3)c(C#N)cc2F)n[nH]1 | 105 | 101 | 96.7 | 105 | 102 | 102 | 101 | 94.2 | 22.1 | 27.6 | 56.8 | 104 | 103 | 106 | 105 | 98.9 | 100 | 107 | 93 | 23 | 44.7 | 53.1 | 96.7 | 89.5 | 104 | 97.4 | 95.6 | 104 | 87.5 | 84.4 | 34.2 | 45.4 | 54.8
8 | Nc1nnc(-c2cccc(Cl)c2Cl)c(N)n1 | 87.5 | 105 | 104 | 10.7 | 107 | 106 | 99.7 | 104 | 102 | 112 | 102 | 90.2 | 98.1 | 95.8 | 11.9 | 100 | 106 | 99.6 | 90.5 | 102 | 102 | 91 | 83.8 | 88.4 | 87.7 | 29.6 | 95 | 97.7 | 99.4 | 97.5 | 98.7 | 105 | 92.1
